pIC50: −log10 of the molar value. Where “and” joins values, the source holds several entries; their conditions need not be identical. Identical values can stand only once. Calls of active or inactive are those of the source. No rule for the calls is given here. Bounds are passed on as bounds.

This experiment deals with Dual specificity protein phosphatase 6 (Rattus norvegicus) (UniProt Q64346). Nature of the experiment: redox-state modulators of MKP-3 activity, biochemical, rat enzyme, secondary assay (AID 1054). The following applies: recombinant MKP-3 phosphatase activity.
Sequence of Dual specificity protein phosphatase 6 (Rattus norvegicus) (Q64346 whole entry, looked up): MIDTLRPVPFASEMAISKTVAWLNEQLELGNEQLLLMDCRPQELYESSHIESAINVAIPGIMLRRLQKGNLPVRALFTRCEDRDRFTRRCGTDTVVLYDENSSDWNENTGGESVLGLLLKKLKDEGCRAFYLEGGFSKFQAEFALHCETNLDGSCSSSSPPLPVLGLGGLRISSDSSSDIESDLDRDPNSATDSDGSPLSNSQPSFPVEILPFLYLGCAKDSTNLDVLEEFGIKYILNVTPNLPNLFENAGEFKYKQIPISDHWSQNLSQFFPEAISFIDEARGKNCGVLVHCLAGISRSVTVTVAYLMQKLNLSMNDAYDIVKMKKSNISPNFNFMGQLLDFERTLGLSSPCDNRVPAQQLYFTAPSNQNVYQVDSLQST

Consider `O=C(Oc1ccc2ccccc2c1)c1ccc2c(c1)C1C=CCC1C(C(=O)O)N2` (stereo not drawn), for which the negative logarithm of the IC50 (pIC50) is 4.61.

For the molecule `COc1cc(C(=S)NCc2ccc(C)cc2C)ccc1O`, the negative-log IC50 (pIC50) is 5.67.

Regarding `O=C(O)C1Nc2ccccc2C2C=CCC12` (stereo not drawn), the pIC50 was 4.60.

As to `O=C(O)C(O)c1ccccc1` (stereo not drawn), the IC50 is > 100 µM (inactive).

For `CC(C)COC(=O)c1ccc2c(c1)C1C=CCC1C(C(=O)O)N2` (stereo not drawn), the pIC50 is 4.25.

Take `CCOc1cc2c(c([N+](=O)[O-])c1)NC(C(=O)O)C1CC=CC21` (stereo not drawn): the IC50 is > 100 µM (inactive).

For the molecule `CCCCOC(=O)c1ccc2c(c1)C1C=CCC1C(C(=O)O)N2` (stereo not drawn), the negative logarithm of the IC50 (pIC50) is 5.40.

`O=C(O)C1Nc2c(Cl)cc(Cl)c(Cl)c2C2C=CCC12` (stereo not drawn): the negative logarithm of the IC50 (pIC50) was 4.92.

For `CCOC(=O)C1Nc2c(O)ccc(C)c2C2C=CCC12` (stereo not drawn), the IC50 was > 100 µM (inactive).

Consider `O=S(=O)(O)c1ccc2cc(N=Nc3cc(S(=O)(=O)O)c4cccnc4c3O)ccc2c1`, for which the negative logarithm of the IC50 (pIC50) was 5.38.

Turning to `Cc1cc(NC(=O)Cc2cccs2)no1`, the pIC50 was 4.88.

`O=C(O)C1Nc2c(cccc2C(F)(F)F)C2C=CCC12` (stereo not drawn): the pIC50 was 5.11.

`COC(=O)c1ccccc1OC(=O)c1ccc2c(c1)C1C=CCC1C(C(=O)O)N2` (stereo not drawn): the pIC50 was 4.77.

On to `Cc1cc(I)cc2c1NC(C(=O)O)C1CC=CC21` (stereo not drawn), for which the IC50 was > 100 µM (inactive).

In the case of `O=c1/c(=C/c2cccc(Br)c2)sc2nc3cc(Br)cnc3n12`, the IC50 was > 100 µM (inactive).

In the case of `O=C(O)C1Nc2c(F)cccc2C2C=CCC12` (stereo not drawn), the negative logarithm of the IC50 (pIC50) is 4.76.

`COc1cc(C(=S)N2CCCCC2)ccc1O`: the pIC50 is 4.87 and 4.97.

Regarding `CCn1c(=O)n(C)c(=O)n([C@@H](Cc2ccccc2)C(N)=O)c1=O`, the IC50 is > 100 µM (inactive).

For the molecule `NC(=O)[C@H](Cc1ccccc1)n1c(=O)n(Cc2ccc(Br)cc2)c(=O)n(-c2ccccc2)c1=O`, the IC50 was > 100 µM (inactive).

`CCCCCC#CCC#CCC#CCC#CCCCC(=O)O`: the pIC50 was 4.52.

Turning to `Cn1c(=O)n(-c2ccccc2)c(=O)n([C@@H](Cc2ccccc2)C(N)=O)c1=O`, the IC50 is > 100 µM (inactive).

As for `COCCCNc1nc(=O)n(-c2ccc(F)cc2)c(=O)[nH]1`, the IC50 was > 100 µM (inactive).

On to `O=c1/c(=C/c2ccco2)sc2nc3cc(Br)cnc3n12`, for which the pIC50 is 5.34.

Regarding `COc1ccc2c(c1)C1C=CCC1C(C(=O)O)N2` (stereo not drawn), the negative logarithm of the IC50 (pIC50) was 4.49.

Regarding `CCOC(=O)C1=C(c2ccccc2)N=c2sc(=Cc3cc(OC)c(OC)c(OC)c3)c(=O)n2C1c1cccs1` (stereo not drawn), the IC50 was > 50 µM (inactive).

With `CCCCCCCCC#CC#CCCCC(=O)O`, the IC50 is > 100 µM (inactive).

As to `COc1cc(C(=S)NCc2ccc(F)c(C)c2)ccc1O`, the negative-log IC50 (pIC50) is 5.12.

Take `C#CCCCCCCCCCCCCCCCCCC`: the IC50 is > 100 µM (inactive).

For the molecule `Cc1cc([N+](=O)[O-])cc2c1NC(C(=O)O)C1CC=CC21` (stereo not drawn), the IC50 was > 100 µM (inactive).

Turning to `Cc1cc(O)c2c(c1)C1C=CCC1C(C(=O)O)N2` (stereo not drawn), the IC50 is > 100 µM (inactive).

Turning to `COc1cc(C(=S)NCc2ccc(O)cc2)ccc1O`, the pIC50 is 4.79.

For `CCN(CC)C(=S)c1ccc(O)c(OC)c1`, the negative logarithm of the IC50 (pIC50) was 4.06.

Consider `O=C(O)c1ccc(N2C(=O)c3ccccc3C2=O)cc1`, for which the IC50 was > 100 µM (inactive).

Take `O=C(Oc1ccc(-c2ccccc2)cc1)c1cccc2c1NC(C(=O)O)C1CC=CC21` (stereo not drawn): the pIC50 is 5.46.

As to `Clc1ccccc1CSc1nnc(-c2ccco2)c(-c2ccco2)n1`, the pIC50 is 4.62.

For `COc1cc(C(=S)NCc2ccc(Cl)c(C)c2)ccc1O`, the pIC50 is 4.98.

Turning to `CCCCCc1nnc(NC(=O)Cc2cccs2)s1`, the pIC50 was 4.76.

For the molecule `CCOC(=O)C1Nc2c(OC)cccc2C2OCCC12` (stereo not drawn), the IC50 was > 100 µM (inactive).

On to `O=C(Cc1cccs1)Nc1ccon1`, for which the IC50 was > 100 µM (inactive).

For `CCCCCCCCCCCCCCCCCCC#CCCCCCCCCCCC(=O)O`, the IC50 was > 100 µM (inactive).

With `O=C(O)C1Nc2c(Cl)cc(Cl)cc2C2C=CCC12` (stereo not drawn), the pIC50 is 4.28.

Turning to `Cn1c(=O)n(-c2ccc(Cl)cc2)c(=O)n([C@@H](Cc2ccccc2)C(N)=O)c1=O`, the IC50 was > 100 µM (inactive).

In the case of `CCn1c(=O)n(Cc2ccccc2C)c(=O)n([C@@H](Cc2ccccc2)C(=O)O)c1=O`, the IC50 is > 100 µM (inactive).

As to `CCC(CC)NC(=S)c1ccc(O)c(OC)c1`, the negative-log IC50 (pIC50) is 5.38.

For `Cc1ccccc1Cn1c(=O)n(-c2ccccc2)c(=O)n([C@@H](C)C(N)=O)c1=O`, the IC50 is > 100 µM (inactive).

As to `CCOC(=O)C1=C(C)N=c2sc(=Cc3ccc(OCC(=O)O)cc3)c(=O)n2C1c1ccc(SC)cc1` (stereo not drawn), the pIC50 is 5.04.

Turning to `Cc1ccccc1Cn1c(=O)n(-c2ccccc2)c(=O)n([C@H](C(=O)O)C(C)C)c1=O`, the IC50 is > 100 µM (inactive).

For the molecule `COc1cc(C(=S)NC2CCCC2)ccc1O`, the pIC50 is 5.42.

Take `Cc1cc(C)c2c(c1)NC(C(=O)O)C1CC=CC21` (stereo not drawn): the pIC50 is 4.34.

Consider `Cc1cc2nc3s/c(=C/c4ccc(-c5ccccc5C(=O)O)o4)c(=O)n3c2cc1C`, for which the negative logarithm of the IC50 (pIC50) was 4.83.

For the molecule `O=C(O)c1ccc(-c2ccc(/C=c3\sc4nc5ccccc5n4c3=O)o2)cc1`, the negative logarithm of the IC50 (pIC50) was 5.18.

For the molecule `CCn1c(=O)n(Cc2ccc(N(O)O)cc2)c(=O)n([C@@H](Cc2ccccc2)C(=O)O)c1=O`, the IC50 is > 100 µM (inactive).

Take `O=c1nc(NCCc2ccccc2)[nH]c(=O)n1-c1ccccc1`: the IC50 is > 100 µM (inactive).

Turning to `CCN1CCN(C(=S)c2ccc(O)c(OC)c2)CC1`, the IC50 is > 100 µM (inactive).

As for `COCCCNc1nc(=O)n(-c2ccc(C)cc2)c(=O)[nH]1`, the IC50 is > 100 µM (inactive).

On to `CCOC(=O)C1Nc2c(O)cccc2C2C=CCC12` (stereo not drawn), for which the IC50 is > 100 µM (inactive).

As for `O=C(O)c1ccc2c(c1)C1C=CCC1C(C(=O)O)N2` (stereo not drawn), the pIC50 was 4.81.

Turning to `COc1cc(C(=S)N2CCCC2)ccc1O`, the IC50 is > 100 µM (inactive).

With `Cn1c(SCC(=O)O)nc2sc3c(c2c1=O)CCC3`, the IC50 is > 100 µM (inactive).

Turning to `CCOC(=O)c1ccccc1OC(=O)c1ccc2c(c1)C1C=CCC1C(C(=O)O)N2` (stereo not drawn), the negative-log IC50 (pIC50) is 5.22.

`O=C(O)[C@@H](O)c1ccccc1`: the IC50 was > 100 µM (inactive).

With `CCCn1c(=O)nc(NCCc2ccccc2)[nH]c1=O`, the IC50 is > 100 µM (inactive).

Consider `Cc1ccc(-n2c(=O)[nH]c(=O)n([C@H](C(N)=O)C(C)C)c2=O)cc1`, for which the IC50 was > 100 µM (inactive).

As for `O=c1/c(=C/c2ccc(-c3ccccc3[N+](=O)[O-])o2)sc2nc3cc(Br)cnc3n12`, the pIC50 is 4.53.

With `Cc1ccc2c(c1)NC(C(=O)O)NS2(=O)=O` (stereo not drawn), the pIC50 was 4.24.

For `Cc1ccc2c(c1)C1C=CCC1C(C(=O)O)N2` (stereo not drawn), the pIC50 was 5.10.

`NC(=O)c1cccc2c1NC(C(=O)O)C1CC=CC21` (stereo not drawn): the pIC50 was 4.26.

On to `O=C(O)C1Nc2c(cccc2N2CCOCC2)C2C=CCC12` (stereo not drawn), for which the pIC50 is 4.22.

Turning to `Cc1cc(NC(=O)CCc2ccc(C)o2)no1`, the IC50 is > 100 µM (inactive).

On to `CCCCCCCCCCCCCCCCCCC=CCCCCCC(=O)O`, for which the IC50 was > 100 µM (inactive).

For `CC(=O)Nc1ccc2c(c1)C1C=CCC1C(C(=O)O)N2` (stereo not drawn), the IC50 is > 100 µM (inactive).

Take `COc1cccc2c1NC(C(=O)O)C1CC=CC21` (stereo not drawn): the pIC50 is 4.64 and 4.88.

As for `Cc1ccc(C)c2c1NC(C(=O)O)C1CC=CC21` (stereo not drawn), the IC50 was > 100 µM (inactive).

For `Cc1cc(C)c2nc3s/c(=C\c4ccc(-c5ccccc5C(=O)O)o4)c(=O)n3c2c1`, the pIC50 was 4.93.

On to `Cc1ccc2c(nc3s/c(=C\c4ccc(-c5ccccc5C(=O)O)o4)c(=O)n32)c1C`, for which the pIC50 is 4.66.

Take `CCCCCCCCCCCCCCCCCCC#CCCCCCCCCCCCC(=O)O`: the IC50 was > 100 µM (inactive).

With `O=c1/c(=C/c2ccccc2Cl)sc2nc3cc(Br)cnc3n12`, the pIC50 is 5.60.

For `CCCCCCCCCCCCCCCCCCC#CCCCCCCCC(=O)O`, the IC50 is > 100 µM (inactive).

On to `CCCn1c(=O)nc(NCc2ccccc2OC)[nH]c1=O`, for which the IC50 is > 100 µM (inactive).

For the molecule `COc1cc(C(=S)NC(C)(C)C)ccc1O`, the IC50 was > 100 µM (inactive).

With `O=C(O)C1Nc2ccc(Br)cc2C2C=CCC12` (stereo not drawn), the negative-log IC50 (pIC50) is 4.91.

As to `O=C(O)C1Nc2cc(C(F)(F)F)ccc2S(=O)(=O)N1` (stereo not drawn), the IC50 was > 100 µM (inactive).

With `COc1cc(C(=S)NCc2ccc(F)c(C(F)(F)F)c2)ccc1O`, the negative logarithm of the IC50 (pIC50) was 5.82.

With `O=C(O)C1Nc2c(O)cc(Cl)c([N+](=O)[O-])c2C2C=CCC12` (stereo not drawn), the pIC50 is 4.45.

Consider `O=C(O)[C@H](O)c1ccccc1`, for which the IC50 is > 100 µM (inactive).

In the case of `O=c1/c(=C/c2ccc(-c3cc(Cl)cc(Cl)c3)o2)sc2nc3cc(Br)cnc3n12`, the negative logarithm of the IC50 (pIC50) is 4.83.

For `O=C(O)C1Nc2c(O)cccc2C2C=CCC12` (stereo not drawn), the pIC50 was 4.98 and 4.84.

On to `Cc1cc2ccccn2c1C(=O)C(=O)O`, for which the IC50 is > 100 µM (inactive).

Take `CCn1c(=O)n(CC)c(=O)n([C@@H](Cc2ccccc2)C(=O)O)c1=O`: the IC50 was > 100 µM (inactive).

As to `c1ccc(CSc2nnc(-c3ccco3)c(-c3ccco3)n2)cc1`, the pIC50 is 4.62.

On to `O=C(O)C1Nc2cc(Cl)cc(Cl)c2C2C=CCC12` (stereo not drawn), for which the IC50 was > 100 µM (inactive).

Take `CC(C)CNc1nc(=O)n(-c2ccc(F)cc2)c(=O)[nH]1`: the IC50 was > 100 µM (inactive).

Consider `O=C1CC(=O)N(Cc2ccco2)C(=O)N1`, for which the IC50 was > 100 µM (inactive).

For `Cc1ccc(C)n1C(Cc1ccccc1)C(=O)O` (stereo not drawn), the IC50 is > 100 µM (inactive).

Take `O=C(O)C1Nc2c(I)cccc2C2C=CCC12` (stereo not drawn): the IC50 was > 100 µM (inactive).

On to `CCn1c(SCC(=O)O)nc2sc3c(c2c1=O)CCCC3`, for which the IC50 was > 100 µM (inactive).

Regarding `Clc1cccc(Cl)c1COc1nnc(-c2cccs2)c(-c2cccs2)n1`, the IC50 is > 100 µM (inactive).

Regarding `NC(=O)[C@H](Cc1ccccc1)n1c(=O)[nH]c(=O)n(-c2ccc(Cl)cc2)c1=O`, the IC50 was > 100 µM (inactive).

As a reminder, the pIC50 is the IC50 on a negative log10 scale, so that one unit is a factor of ten. What is called IC50 is the midpoint of a concentration-inhibition curve.

The record behind these values is PubChem BioAssay AID1054 (Sanford-Burnham Center for Chemical Genomics, 2008).
